Measured values: the kinase profiling compilation of Christmann-Franck et al. (2016)

Key:
Assay in all cases: radiometric filter-binding kinase assay
[1] = tested on: AKT1 (human), P31749 [S473D]
BRSK2 (human) = BRSK2 (human) (UniProt Q8IWQ3); conditions: compound 10.0 µM
CLK2 (human) = CLK2 (human) (UniProt P49760); conditions: compound 10.0 µM
CSNK2A1 (human) = CSNK2A1 (human) (UniProt P68400)
DAPK1 (human) = DAPK1 (human) (UniProt P53355)
DYRK1A (human) = DYRK1A (human) (UniProt Q13627)
DYRK3 (human) = DYRK3 (human) (UniProt O43781)
Chain of DYRK3 (human) (O43781 whole entry, looked up): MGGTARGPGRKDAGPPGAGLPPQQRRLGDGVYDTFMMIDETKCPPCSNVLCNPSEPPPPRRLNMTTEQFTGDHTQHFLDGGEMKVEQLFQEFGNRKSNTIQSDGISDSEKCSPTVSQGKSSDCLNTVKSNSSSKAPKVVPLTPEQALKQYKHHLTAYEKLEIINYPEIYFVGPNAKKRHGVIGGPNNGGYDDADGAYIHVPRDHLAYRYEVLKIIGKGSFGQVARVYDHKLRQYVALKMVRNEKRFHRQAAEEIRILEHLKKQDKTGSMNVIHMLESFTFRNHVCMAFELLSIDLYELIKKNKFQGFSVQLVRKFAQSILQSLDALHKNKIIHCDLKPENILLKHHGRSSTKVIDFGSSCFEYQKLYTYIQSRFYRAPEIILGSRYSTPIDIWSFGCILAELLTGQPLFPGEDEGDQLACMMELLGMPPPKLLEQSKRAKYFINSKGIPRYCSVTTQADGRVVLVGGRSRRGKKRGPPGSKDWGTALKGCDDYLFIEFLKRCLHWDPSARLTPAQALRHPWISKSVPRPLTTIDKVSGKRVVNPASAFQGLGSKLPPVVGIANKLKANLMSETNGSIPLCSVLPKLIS

EPHB3 (human) = EPHB3 (human) (UniProt P54753)
IKBKB (human) = IKBKB (human) (UniProt O14920)
IKBKE (human) = IKBKE (human) (UniProt Q14164)
Chain of IKBKE (human) (Q14164 whole entry, looked up): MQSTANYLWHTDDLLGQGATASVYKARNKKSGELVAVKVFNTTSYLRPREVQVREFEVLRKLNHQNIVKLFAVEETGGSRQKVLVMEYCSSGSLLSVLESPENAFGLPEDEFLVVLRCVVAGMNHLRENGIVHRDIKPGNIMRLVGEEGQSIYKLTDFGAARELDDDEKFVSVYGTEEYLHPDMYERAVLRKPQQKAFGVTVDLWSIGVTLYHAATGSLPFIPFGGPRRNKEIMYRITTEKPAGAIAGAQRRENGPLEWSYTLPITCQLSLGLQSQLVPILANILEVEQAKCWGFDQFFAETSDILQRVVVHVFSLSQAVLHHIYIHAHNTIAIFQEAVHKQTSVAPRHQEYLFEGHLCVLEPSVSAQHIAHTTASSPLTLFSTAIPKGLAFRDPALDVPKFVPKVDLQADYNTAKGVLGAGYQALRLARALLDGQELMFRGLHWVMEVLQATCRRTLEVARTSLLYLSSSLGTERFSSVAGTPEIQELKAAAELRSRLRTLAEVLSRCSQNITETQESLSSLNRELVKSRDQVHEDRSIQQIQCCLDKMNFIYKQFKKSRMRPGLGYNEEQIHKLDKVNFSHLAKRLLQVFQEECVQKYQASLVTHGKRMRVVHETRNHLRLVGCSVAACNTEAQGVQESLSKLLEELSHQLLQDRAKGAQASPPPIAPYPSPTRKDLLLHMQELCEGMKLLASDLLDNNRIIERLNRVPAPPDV

IRAK4 (human) = IRAK4 (human) (UniProt Q9NWZ3)
MAP2K6 (human) = MAP2K6 (human) (UniProt P52564)
MAP3K11 (human) = MAP3K11 (human) (UniProt Q16584)
Chain of MAP3K11 (human) (Q16584 whole entry, looked up): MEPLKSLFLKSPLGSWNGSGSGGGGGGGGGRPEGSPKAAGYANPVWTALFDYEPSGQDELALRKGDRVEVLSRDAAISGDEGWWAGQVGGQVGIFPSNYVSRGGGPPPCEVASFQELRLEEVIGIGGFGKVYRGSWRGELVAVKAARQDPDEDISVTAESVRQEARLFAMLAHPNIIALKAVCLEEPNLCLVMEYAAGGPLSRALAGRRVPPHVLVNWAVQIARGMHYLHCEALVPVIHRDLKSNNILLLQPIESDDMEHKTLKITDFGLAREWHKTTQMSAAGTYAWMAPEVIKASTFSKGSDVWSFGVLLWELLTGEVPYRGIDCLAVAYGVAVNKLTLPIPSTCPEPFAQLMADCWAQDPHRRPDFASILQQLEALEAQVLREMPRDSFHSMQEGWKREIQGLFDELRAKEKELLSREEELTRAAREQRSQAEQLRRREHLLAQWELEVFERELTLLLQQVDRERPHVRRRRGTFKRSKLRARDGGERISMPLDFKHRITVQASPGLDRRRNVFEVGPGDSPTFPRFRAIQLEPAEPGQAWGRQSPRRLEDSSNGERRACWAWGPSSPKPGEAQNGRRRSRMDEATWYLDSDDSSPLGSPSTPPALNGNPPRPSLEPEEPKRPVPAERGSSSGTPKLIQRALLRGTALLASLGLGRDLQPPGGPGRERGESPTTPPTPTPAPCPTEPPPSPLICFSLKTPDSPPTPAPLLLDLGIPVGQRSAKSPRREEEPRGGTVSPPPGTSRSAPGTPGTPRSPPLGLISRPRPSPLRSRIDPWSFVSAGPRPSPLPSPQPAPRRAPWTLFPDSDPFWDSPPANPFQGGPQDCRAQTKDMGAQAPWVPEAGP

MAP3K7 TAB1 (human) = MAP3K7 TAB1 (human) (UniProt Q15750+O43318)
MAPK11 (human) = MAPK11 (human) (UniProt Q15759)
MAPK14 (human) = MAPK14 (human) (UniProt Q16539)
MAPK3 (human) = MAPK3 (human) (UniProt P27361)
MAPK8 (human) = MAPK8 (human) (UniProt P45983)
MAPKAPK3 (human) = MAPKAPK3 (human) (UniProt Q16644)
MAPKAPK5 (human) = MAPKAPK5 (human) (UniProt Q8IW41)
MKNK2 (human) = MKNK2 (human) (UniProt Q9HBH9)
NTRK1 (human) = NTRK1 (human) (UniProt P04629)
PAK4 (human) = PAK4 (human) (UniProt O96013)
PIM1 (human) = PIM1 (human) (UniProt P11309)
Chain of PIM1 (human) (P11309 whole entry, looked up): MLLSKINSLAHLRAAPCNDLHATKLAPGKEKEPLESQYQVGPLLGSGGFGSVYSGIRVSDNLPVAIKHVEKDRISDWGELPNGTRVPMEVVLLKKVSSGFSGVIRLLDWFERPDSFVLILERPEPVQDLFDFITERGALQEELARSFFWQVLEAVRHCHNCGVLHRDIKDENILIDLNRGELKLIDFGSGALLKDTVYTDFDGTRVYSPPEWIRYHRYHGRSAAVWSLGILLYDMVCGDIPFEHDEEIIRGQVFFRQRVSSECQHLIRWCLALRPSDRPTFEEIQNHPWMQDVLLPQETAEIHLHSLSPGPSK

PIM2 (human) = PIM2 (human) (UniProt Q9P1W9)
Chain of PIM2 (human) (Q9P1W9 whole entry, looked up): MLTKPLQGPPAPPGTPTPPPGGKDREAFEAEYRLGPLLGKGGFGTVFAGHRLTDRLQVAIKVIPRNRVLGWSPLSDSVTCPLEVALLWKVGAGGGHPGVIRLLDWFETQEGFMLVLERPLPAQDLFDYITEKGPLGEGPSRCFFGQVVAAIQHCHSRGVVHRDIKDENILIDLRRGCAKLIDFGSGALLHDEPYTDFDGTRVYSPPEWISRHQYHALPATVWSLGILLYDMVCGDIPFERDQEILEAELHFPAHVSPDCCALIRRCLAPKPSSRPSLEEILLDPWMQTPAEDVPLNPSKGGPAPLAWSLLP

PIM3 (human) = PIM3 (human) (UniProt Q86V86)
PLK1 (human) = PLK1 (human) (UniProt P53350)
ROCK2 (rat) = conditions: accession and sequence are those of the human protein
RPS6KA1 KD1 KD2 (human) = RPS6KA1 KD1 KD2 (human) (UniProt Q15418)
Chain of RPS6KA1 KD1 KD2 (human) (Q15418 whole entry, looked up): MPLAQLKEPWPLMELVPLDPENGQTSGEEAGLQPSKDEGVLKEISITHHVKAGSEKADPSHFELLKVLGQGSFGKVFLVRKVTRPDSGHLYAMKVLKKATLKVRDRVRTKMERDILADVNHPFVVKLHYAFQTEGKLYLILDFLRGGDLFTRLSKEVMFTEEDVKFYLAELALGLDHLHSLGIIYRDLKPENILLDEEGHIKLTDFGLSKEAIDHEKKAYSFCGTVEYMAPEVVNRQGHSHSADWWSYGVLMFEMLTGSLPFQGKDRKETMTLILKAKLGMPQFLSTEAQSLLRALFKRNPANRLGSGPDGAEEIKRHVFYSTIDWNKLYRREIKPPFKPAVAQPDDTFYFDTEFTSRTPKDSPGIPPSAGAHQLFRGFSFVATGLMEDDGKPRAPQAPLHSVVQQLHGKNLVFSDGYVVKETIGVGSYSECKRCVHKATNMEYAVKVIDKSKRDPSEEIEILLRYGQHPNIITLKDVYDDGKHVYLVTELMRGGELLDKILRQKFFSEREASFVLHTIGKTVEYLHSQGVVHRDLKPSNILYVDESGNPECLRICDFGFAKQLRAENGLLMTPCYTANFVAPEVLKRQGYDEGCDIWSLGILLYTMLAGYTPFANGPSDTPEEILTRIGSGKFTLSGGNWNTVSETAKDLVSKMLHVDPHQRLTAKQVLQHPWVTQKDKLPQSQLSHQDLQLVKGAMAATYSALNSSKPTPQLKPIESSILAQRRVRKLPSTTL

RPS6KA3 KD1 KD2 (human) = RPS6KA3 KD1 KD2 (human) (UniProt P51812)
Chain of RPS6KA3 KD1 KD2 (human) (P51812 whole entry, looked up): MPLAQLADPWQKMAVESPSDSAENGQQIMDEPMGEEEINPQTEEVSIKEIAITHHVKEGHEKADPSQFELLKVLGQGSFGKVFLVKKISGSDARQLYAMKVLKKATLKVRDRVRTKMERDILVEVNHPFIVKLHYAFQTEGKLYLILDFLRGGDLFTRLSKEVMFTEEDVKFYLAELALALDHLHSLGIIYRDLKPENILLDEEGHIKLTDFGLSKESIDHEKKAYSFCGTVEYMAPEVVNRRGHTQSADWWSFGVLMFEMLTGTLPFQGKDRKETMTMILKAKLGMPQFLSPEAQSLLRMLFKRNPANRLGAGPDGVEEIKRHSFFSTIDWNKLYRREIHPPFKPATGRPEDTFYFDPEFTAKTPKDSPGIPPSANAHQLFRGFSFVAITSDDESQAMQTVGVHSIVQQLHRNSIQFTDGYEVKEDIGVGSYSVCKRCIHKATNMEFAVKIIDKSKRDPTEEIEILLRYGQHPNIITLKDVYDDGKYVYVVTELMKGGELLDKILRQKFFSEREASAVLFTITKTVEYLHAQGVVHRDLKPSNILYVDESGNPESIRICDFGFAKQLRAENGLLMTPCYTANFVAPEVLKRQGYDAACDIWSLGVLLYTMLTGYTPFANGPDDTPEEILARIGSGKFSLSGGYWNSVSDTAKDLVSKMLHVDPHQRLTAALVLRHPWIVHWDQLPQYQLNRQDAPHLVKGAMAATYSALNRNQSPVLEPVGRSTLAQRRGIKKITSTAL

[2] = tested on: RPS6KB1 (human), P23443 [T412E]
[3] = tested on: SGK1 (human), O00141 [S422D]
STK3 (human) = STK3 (human) (UniProt Q13188)
Chain of STK3 (human) (Q13188 whole entry, looked up): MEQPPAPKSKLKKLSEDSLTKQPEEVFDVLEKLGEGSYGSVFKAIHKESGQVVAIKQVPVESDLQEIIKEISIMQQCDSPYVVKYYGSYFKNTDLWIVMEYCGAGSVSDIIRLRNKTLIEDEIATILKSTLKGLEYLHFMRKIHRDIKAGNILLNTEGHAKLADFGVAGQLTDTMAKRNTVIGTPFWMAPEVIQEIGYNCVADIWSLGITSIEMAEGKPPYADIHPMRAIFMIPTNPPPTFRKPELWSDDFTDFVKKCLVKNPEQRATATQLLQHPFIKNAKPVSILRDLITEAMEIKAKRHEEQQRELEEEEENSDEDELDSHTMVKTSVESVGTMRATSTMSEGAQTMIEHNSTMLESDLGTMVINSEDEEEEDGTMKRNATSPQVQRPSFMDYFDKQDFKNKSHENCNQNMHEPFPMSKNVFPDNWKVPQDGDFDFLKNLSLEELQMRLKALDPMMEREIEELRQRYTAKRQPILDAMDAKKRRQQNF

TBK1 (human) = TBK1 (human) (UniProt Q9UHD2)

COc1cc2ncn(-c3cc(OCc4ccccc4S(C)(=O)=O)c(C#N)s3)c2cc1OC
residual activity ([1]; compound 1.0 µM): 98%
residual activity ([1]; compound 10.0 µM): 85%
residual activity (BRSK2 (human)): 30%
residual activity (CLK2 (human)): 18%
residual activity (CSNK2A1 (human); compound 1.0 µM): 118%
residual activity (CSNK2A1 (human); compound 10.0 µM): 107%
residual activity (DAPK1 (human); compound 1.0 µM): 54%
residual activity (DAPK1 (human); compound 10.0 µM): 51%
residual activity (DYRK1A (human); compound 1.0 µM): 73%
residual activity (DYRK1A (human); compound 10.0 µM): 81%
residual activity (DYRK3 (human); compound 1.0 µM): 75%
residual activity (DYRK3 (human); compound 10.0 µM): 82%
residual activity (EPHB3 (human); compound 1.0 µM): 40%
residual activity (EPHB3 (human); compound 10.0 µM): 27%
residual activity (IKBKB (human); compound 1.0 µM): 103%
residual activity (IKBKB (human); compound 10.0 µM): 78%
residual activity (IKBKE (human); compound 1.0 µM): 9%
residual activity (IKBKE (human); compound 10.0 µM): 6%
residual activity (IRAK4 (human); compound 1.0 µM): 13%
residual activity (IRAK4 (human); compound 10.0 µM): 6%
residual activity (MAP2K6 (human); compound 1.0 µM): 91%
residual activity (MAP2K6 (human); compound 10.0 µM): 84%
residual activity (MAP3K11 (human); compound 1.0 µM): 5%
residual activity (MAP3K11 (human); compound 10.0 µM): 3%
residual activity (MAP3K7 TAB1 (human); compound 1.0 µM): 100%
residual activity (MAP3K7 TAB1 (human); compound 10.0 µM): 70%
residual activity (MAPK11 (human); compound 1.0 µM): 103%
residual activity (MAPK14 (human); compound 1.0 µM): 91%
residual activity (MAPK14 (human); compound 10.0 µM): 85%
residual activity (MAPK3 (human); compound 1.0 µM): 101%
residual activity (MAPK3 (human); compound 10.0 µM): 77%
residual activity (MAPK8 (human); compound 1.0 µM): 92%
residual activity (MAPK8 (human); compound 10.0 µM): 87%
residual activity (MAPKAPK3 (human); compound 1.0 µM): 93%
residual activity (MAPKAPK3 (human); compound 10.0 µM): 67%
residual activity (MAPKAPK5 (human); compound 1.0 µM): 101%
residual activity (MKNK2 (human); compound 1.0 µM): 47%
residual activity (MKNK2 (human); compound 10.0 µM): 35%
residual activity (NTRK1 (human); compound 1.0 µM): 30%
residual activity (NTRK1 (human); compound 10.0 µM): 28%
residual activity (PAK4 (human); compound 1.0 µM): 53%
residual activity (PAK4 (human); compound 10.0 µM): 41%
residual activity (PIM1 (human); compound 1.0 µM): 94%
residual activity (PIM1 (human); compound 10.0 µM): 71%
residual activity (PIM2 (human); compound 1.0 µM): 93%
residual activity (PIM2 (human); compound 10.0 µM): 78%
residual activity (PIM3 (human); compound 1.0 µM): 90%
residual activity (PIM3 (human); compound 10.0 µM): 73%
residual activity (PLK1 (human); compound 1.0 µM): 65%
residual activity (PLK1 (human); compound 10.0 µM): 55%
residual activity (ROCK2 (rat); compound 1.0 µM): 93%
residual activity (ROCK2 (rat); compound 10.0 µM): 61%
residual activity (RPS6KA1 KD1 KD2 (human); compound 1.0 µM): 50%
residual activity (RPS6KA1 KD1 KD2 (human); compound 10.0 µM): 28%
residual activity (RPS6KA3 KD1 KD2 (human); compound 1.0 µM): 82%
residual activity (RPS6KA3 KD1 KD2 (human); compound 10.0 µM): 57%
residual activity ([2]; compound 1.0 µM): 87%
residual activity ([2]; compound 10.0 µM): 66%
residual activity ([3]; compound 1.0 µM): 105%
residual activity (STK3 (human); compound 1.0 µM): 19%
residual activity (STK3 (human); compound 10.0 µM): 7%
residual activity (TBK1 (human); compound 1.0 µM): 21%
residual activity (TBK1 (human); compound 10.0 µM): 17%

CC(C)C[C@H](NC(=O)CNC(=O)c1cc(Cl)ccc1Cl)B1OC(=O)CC(CC(=O)O)(C(=O)O)O1 (some centres not stated)
residual activity ([1]; compound 10.0 µM): 83%
residual activity (BRSK2 (human)): 90%
residual activity (CLK2 (human)): 79%
residual activity (CSNK2A1 (human); compound 10.0 µM): 82%
residual activity (DAPK1 (human); compound 10.0 µM): 88%
residual activity (DYRK1A (human); compound 10.0 µM): 88%
residual activity (DYRK3 (human); compound 10.0 µM): 97%
residual activity (EPHB3 (human); compound 10.0 µM): 62%
residual activity (IKBKB (human); compound 10.0 µM): 97%
residual activity (IKBKE (human); compound 10.0 µM): 91%
residual activity (IRAK4 (human); compound 10.0 µM): 79%
residual activity (MAP2K6 (human); compound 10.0 µM): 92%
residual activity (MAP3K11 (human); compound 10.0 µM): 99%
residual activity (MAP3K7 TAB1 (human); compound 10.0 µM): 127%
residual activity (MAPK11 (human); compound 10.0 µM): 70%
residual activity (MAPK14 (human); compound 10.0 µM): 88%
residual activity (MAPK3 (human); compound 10.0 µM): 106%
residual activity (MAPK8 (human); compound 10.0 µM): 85%
residual activity (MAPKAPK3 (human); compound 10.0 µM): 102%
residual activity (MAPKAPK5 (human); compound 10.0 µM): 92%
residual activity (MKNK2 (human); compound 10.0 µM): 80%
residual activity (NTRK1 (human); compound 10.0 µM): 95%
residual activity (PAK4 (human); compound 10.0 µM): 77%
residual activity (PIM1 (human); compound 10.0 µM): 88%
residual activity (PIM2 (human); compound 10.0 µM): 94%
residual activity (PIM3 (human); compound 10.0 µM): 92%
residual activity (PLK1 (human); compound 10.0 µM): 97%
residual activity (ROCK2 (rat); compound 10.0 µM): 76%
residual activity (RPS6KA1 KD1 KD2 (human); compound 10.0 µM): 80%
residual activity (RPS6KA3 KD1 KD2 (human); compound 10.0 µM): 94%
residual activity ([2]; compound 10.0 µM): 94%
residual activity ([3]; compound 10.0 µM): 78%
residual activity (STK3 (human); compound 10.0 µM): 100%
residual activity (TBK1 (human); compound 10.0 µM): 81%
